Data taken from patent publication US20220280594A1, “APPLICATION OF POLYPEPTIDE OR DERIVATIVE THEREOF” (CHENGDU HUITAI BIOMEDICINE CO., LTD., priority 2019, published 2022).
Ends that are not written are not given here. PEG = not defined here

What was measured:
Assay type in all cases: cell-based
[1] = test system: human lung squamous carcinoma cells (NCI-H226); test: scratch assay, migration of NCI-H226 cells; conditions: NCI-H226, 10 μM, 48 hours; control group 65.31 ± 3.19
Summary of the method: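 A straight scratch was made in confluent NCI-H226 monolayers (1-2×10^5 cells/well). Cells were then kept 48 h in 2% FBS medium with 10 μM polypeptide or PBS control, triplicate wells. Migration rate (%) = (original − current scratch width)/original width ×100, from imaged scratch widths.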

[2] = test system: human breast cancer cells (MDA-MB-231); test: scratch assay, migration of MDA-MB-231 cells; conditions: MDA-MB-231, 10 μM, 48 hours; control group 36.19 ± 5.15
Summary of the method: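 MDA-MB-231 monolayers (1-2×10^5 cells/well) were scratched, then kept 48 h in medium with 2% FBS containing polypeptide at 10 μM, with a PBS control, in triplicate wells. Migration rate (%) was taken from scratch width: (original − current)/original ×100.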

[3] = test system: human pancreatic cancer cells (PANC-1); test: scratch assay, migration of PANC-1 cells; conditions: PANC-1, 10 μM, 48 hours; control group 66.65 ± 3.37
Summary of the method: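 PANC-1 monolayers were scratched, then cultured for 48 h with 10 μM test compound in 2% FBS medium, in three parallel wells per group against a PBS control. Migration rate (%) was calculated as (original minus current scratch width) / original width × 100, from imaged wells.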

[4] = test system: human non-small cell lung cancer cells (A549); test: scratch assay, migration of A549 cells; conditions: A549, 10 μM, 48 hours; control group 75.31 ± 8.19
Summary of the method: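 Confluent A549 monolayers in 24-well plates were scratched, washed with PBS, then cultured 48 h in 2% FBS medium with peptide at 10 μM or PBS control, triplicate wells. Scratch width measured from images; migration rate (%) = (original − current width)/original width × 100.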

[5] = test system: human liver adenocarcinoma cells (SK-HEP-1); test: transwell migration assay, SK-HEP-1 cells; conditions: SK-HEP-1 transwell migration, 10 μM, 24 hours; control group 1 782 ± 108, control group 2 768 ± 86
Summary of the method: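 SK-HEP-1 cells in serum-free medium seeded in upper transwell chamber (2-3×10^5 cells/mL) over complete medium; after 4-5 h at 37 °C, 5% CO2, peptide added at 10 μM final in upper chamber. After 24 h, migrated cells fixed in methanol, crystal-violet stained, imaged and counted.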

[6] = test system: human prostate cancer cells (22RV1); test: scratch assay, migration of 22RV1 cells; conditions: 22RV1, 10 μM, 48 hours; control group 25.41 ± 5.01
Summary of the method: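 22RV1 monolayers (seeded 1-2×10^5 cells/well) were scratched, washed, then given 2% FBS medium with 10 μM polypeptide or PBS, triplicate wells, for 48 h. Migration rate (%) = (original − current scratch width)/original width ×100, from ≥3 images per well.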

[7] = test system: human lung cancer cells (95D); test: scratch assay, migration of 95D cells; conditions: 10 μM, 48 hours, control group 55.3 ± 3.19
Summary of the method: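 Confluent 95D monolayers were scratched, washed with PBS and cultured 48 h in 2% FBS medium containing peptide (10 μM) or PBS control, in triplicate wells. Scratch width was measured on images; migration rate (%) = (original width − current width)/original width × 100.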

[8] = test system: human pancreatic cancer cells (PANC-1); test: transwell migration assay, PANC-1 cells; conditions: PANC-1 transwell migration, 10 μM, 24 hours; control group 360 ± 60
Summary of the method: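 Serum-free PANC-1 cells placed in the upper transwell chamber with complete medium below; after 4-5 h, peptide added to the upper chamber at a final 10 μM. Migration ran 24 h at 37 °C; cells on the membrane underside were methanol-fixed, crystal violet-stained and counted by microscopy.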

[9] = test system: human colon cancer cells (HCT-116); test: scratch assay, migration of HCT-116 cells; conditions: HCT-116, 10 μM, 48 hours; control group 47.78 ± 6.07
Summary of the method: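 Confluent HCT-116 monolayers were scratched, washed and cultured 48 h in 2% FBS medium with peptide at 10 μM versus PBS control, triplicate wells. Migration rate (%) = (original minus current scratch width)/original width × 100, from at least 3 images per well.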

[10] = test system: human thyroid cancer cells (FRO); test: scratch assay, migration of FRO cells; conditions: 10 μM, 48 hours, control group 60.34 ± 8.32
Summary of the method: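 FRO monolayers were scratched, washed, and cultured 48 h in 2% FBS medium with polypeptide derivatives at 10 μM or PBS control, three wells per group. Migration rate (%) = (original − current scratch width)/original width × 100, measured from images.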

[11] = test system: human pharyngeal squamous-cell carcinoma cells (Fadu); test: scratch assay, migration of Fadu cells; conditions: 10 μM, 48 hours, control group 28.76 ± 4.08
Summary of the method: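 Confluent Fadu monolayers scratched, then cultured 48 h with 10 μM polypeptide in medium with 2% FBS; PBS control, triplicate wells. Migration rate (%) = (original − current scratch width)/original width × 100, from ≥3 images per well.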

Row | Substance | Migration rate (%) (mean ± SD, P) [1] | Migration rate (%) (mean ± SD, P) [2] | Migration rate (%) (mean ± SD, P) [3] | Migration rate (%) (mean ± SD, P) [4] | Number of cells (mean ± SD, P), migrated cells [5] | Migration rate (%) (mean ± SD, P) [6] | Migration rate (%) (mean ± SD, P) [7] | Number of cells (mean ± SD, P), migrated cells [8] | Migration rate (%) (mean ± SD, P) [9] | Migration rate (%) (mean ± SD, P) [10] | Migration rate (%) (mean ± SD, P) [11]
1 | N50: SEQ ID NO: 1 with N18R, addition of 2 amino acid at the carboxyl terminal, PEG modification at the amino terminal ({PEG}-YRVRFLAKENVTQDAEDRCT; reading uncertain) | 33.20 ± 3.59,** % | 14.46 ± 5.73,** % | 14.92 ± 8.62,*** % | 57.74 ± 4.39,* % | 192 ± 16,**** | 6.20 ± 3.31,** % | 31.05 ± 4.32,** % | 230 ± 11,** | 17.04 ± 4.96,** % | 11.80 ± 4.15,*** % | 5.44 ± 1.44,*** %
2 | N51: SEQ ID NO: 1 with A15R, one amino acid added at each terminal, PEG modification at the amino terminal ({PEG}-FYRVRFLAKENVTQDREDNC; reading uncertain) | 33.16 ± 4.43,** % | 14.5 ± 2.68,** % | 20.85 ± 8.10,*** % | 53.59 ± 5.62,* % | 306 ± 46,*** | 5.23 ± 2.42,** % | 30.04 ± 5.08,** % | 214 ± 17,*** | 16.11 ± 3.20,** % | 17.93 ± 5.55,** % | 8.71 ± 1.79,*** %
3 | N52: SEQ ID NO: 1 with N18R, addition of two amino acids and PEG modification at the carboxyl terminal (YRVRFLAKENVTQDAEDRCT-{PEG}; reading uncertain) | 27.19 ± 4.67,*** % | 13.19 ± 4.84,** % | 23.11 ± 4.27,*** % | 56.03 ± 4.21,* % | 318 ± 37,*** | 5.43 ± 1.97,** % | 27.19 ± 5.67,** % | 153 ± 16,*** | 18.71 ± 3.59,** % | 10.86 ± 3.90,*** % | 7.76 ± 2.08,*** %
4 | N53: SEQ ID NO: 1 with A15R, one amino acid added at each terminal, PEG modification at the carboxyl terminal (FYRVRFLAKENVTQDREDNC-{PEG}; reading uncertain) | 41.05 ± 4.60,** % | 18.05 ± 6.08,* % | 15.85 ± 7.32,*** % | 58.05 ± 3.60,* % | 265 ± 32,**** | 10.75 ± 3.22,* % | 21.05 ± 6.60,** % | 131 ± 8,*** | 14.42 ± 3.21,*** % | 20.32 ± 4.58,** % | 13.8 ± 3.05,** %
5 | N54: SEQ ID NO: 1 with A7R, addition of two amino acids and PEG modification at the carboxyl terminal (YRVRFLRKENVTQDAEDNTC-{PEG}; reading uncertain) | 24.66 ± 5.13,*** % | 13.37 ± 5.89,** % | 16.62 ± 5.73,*** % | 54.66 ± 4.73,* % | 345 ± 3,**** | 12.94 ± 2.70,* % | 24.66 ± 6.13,** % | 128 ± 19,*** | 26.50 ± 3.99,** % | 8.26 ± 3.47% | 15.88 ± 5.38,* %
